This is an account of results in ChEMBL document CHEMBL1136578, “Synthesis of non-natural C2-homo-ceramide and its apoptotic activity against HL-60 cells” (2003).

Each structure is given as a SMILES string.

For the assay, the system named is HL-60. Put plainly: Apoptotic activity against HL-60 (Human leukemia) cell after 6 hr of stimulation measured by MTT assay. It is filed as functional. (In general: Tetrazolium assays rely on reduction of a dye to a coloured formazan, in cell work by metabolically active cells.)
Consider `CCCCCCCCCCCCCCC[C@@H](O)[C@H](CCO)NC(C)=O`, for which the Apoptosis is 21%.
Next, `CCCCCCCCCCCCC/C=C/[C@@H](O)[C@H](CCO)NC(C)=O`: 48%; `CCCCCCCCCCCCCCC[C@@H](O)[C@H](CCCO)NC(C)=O`: 20%.
Turning to `CCCCCCCCCCCCC/C=C/[C@@H](O)[C@H](CCCO)NC(C)=O`, the Apoptosis was found to be 52%.
Turning to `CCCCCCCCCCCCC/C=C/[C@@H](O)[C@H](CO)NC(C)=O` (stereo in doubt; form 1), the Apoptosis was found to be 62%.
